# Active and inactive are the calls of the source. The rule behind the calls is not given here.
# Tests used:
# [1] = Cytotoxicity against human 9KB cells; type: functional; conditions: read-out: LD50 (the source's name)
# Staphylococcus aureus = assay: Antimicrobial activity against Staphylococcus aureus at 100 ug by paper disk assay; type: functional, organism-based
# Escherichia coli = assay: Antimicrobial activity against Escherichia coli at 100 ug by paper disk assay; type: functional, organism-based
# Pseudomonas aeruginosa = assay: Antimicrobial activity against Pseudomonas aeruginosa at 100 ug by paper disk assay; type: functional, organism-based
# Candida albicans = assay: Antimicrobial activity against Candida albicans at 100 ug by paper disk assay; type: functional, organism-based
# Bacillus subtilis = assay: Antimicrobial activity against Bacillus subtilis at 100 ug by paper disk assay; type: functional, organism-based
smiles,measurement,setting,value
COc1cc(O)c2c(=O)c(C)c(/C=C/c3cc(O)cc(O)c3)oc2c1OC,CC50,[1],1 µg/mL
same,Activity,Staphylococcus aureus,inactive
same,Activity,Escherichia coli,inactive
same,Activity,Pseudomonas aeruginosa,inactive
same,Activity,Candida albicans,inactive
same,Activity,Bacillus subtilis,inactive

# Reference: ChEMBL document CHEMBL1147279, “6-Desmethoxyhormothamnione, a new cytotoxic styrylchromone from the marine cryptophyte Chrysophaeum taylori” (1989)
